# In patent US20240408086A1, “USE OF LUVADAXISTAT FOR THE TREATMENT OF COGNITIVE IMPAIRMENT” (TAKEDA PHARMACEUTICAL COMPANY LIMITED, priority 2021, published 2024):
# Tested on: adult patients with persistent negative symptoms of schizophrenia
# Assay type: in vivo, human
# Source text: To assess changes in cognitive impairment associated with schizophrenia (CIAS), secondary endpoints included the 12-week change from baseline in the Brief Assessment of Cognition in Schizophrenia (BACS) composite score, a measure of cognition across multiple domains, and the Schizophrenia Cognition Rating Scale (SCORS) score, a measure of day-to-day cognitive functioning requiring input from an adult informant. Secondary endpoints were not corrected for multiplicity.
# The BACS is specifically designed to measure treatment-related improvements in cognition and includes alternate forms. BACS is a reliable and sensitive measure of cognitive function in schizophrenia. The BACS is a cognition assessment battery that assesses 6 domains of cognitive function found to be consistently impaired in schizophrenia: verbal memory; working memory; motor speed; attention; executive functions; and verbal fluency. The primary measure from each test of the BACS is standardized by creating T-scores whereby the mean of the test session of a matched reference healthy participant is set to 50 and the standard deviation set to 10.
# [1] = 125 mg once daily, preliminary analysis
# [2] = 500 mg once daily, MMRM, preliminary analysis
# [3] = 500 mg once daily, preliminary analysis
smiles,measurement,setting,value
"O=c1[nH]nc(CCc2ccc(C(F)(F)F)cc2)cc1O [Compound (I), luvadaxistat]","BACS Working Memory Cognition Domain, Change from Baseline to Week 6, Median",[1],2.0
same,"BACS Working Memory Cognition Domain, Change from Baseline to Week 12, Mean (SD)",[1],1.8 (7.40)
same,"BACS Working Memory Cognition Domain, Change from Baseline to Week 12, Median",[1],0.0
same,"BACS Working Memory Cognition Domain, Week 6, Mean (SD)",[1],41.0 (11.17)
same,"BACS Working Memory Cognition Domain, Week 6, Median",[1],41.0
same,"BACS Working Memory Cognition Domain, Week 12, Mean (SD)",[1],41.7 (13.58)
same,"BACS Working Memory Cognition Domain, Week 12, Median",[1],40.0
same,"BACS Attention Cognition Domain, Change from Baseline to Week 6, Mean (SD)","125 mg, Week 6",2.2 (6.07)
same,"BACS Attention Cognition Domain, Change from Baseline to Week 6, Median","125 mg, Week 6",2.0
same,"BACS Attention Cognition Domain, Week 6, Mean (SD)","125 mg, Week 6",36.7 (12.72)
same,"BACS Attention Cognition Domain, Week 6, Median","125 mg, Week 6",37.0
same,"BACS Executive Functions Cognition Domain, Change from Baseline to Week 6, Mean (SD)","125 mg, Week 6",0.8 (9.01)
same,"BACS Executive Functions Cognition Domain, Change from Baseline to Week 6, Median","125 mg, Week 6",0.0
same,"BACS Executive Functions Cognition Domain, Week 6, Mean (SD)","125 mg, Week 6",46.3 (16.06)
same,"BACS Executive Functions Cognition Domain, Week 6, Median","125 mg, Week 6",50.0
same,"BACS Verbal Fluency Cognition Domain, Change from Baseline to Week 6, Mean (SD)","125 mg, Week 6",0.8 (4.53)
same,"BACS Verbal Fluency Cognition Domain, Change from Baseline to Week 6, Median","125 mg, Week 6",1.0
same,"BACS Verbal Fluency Cognition Domain, Week 6, Mean (SD)","125 mg, Week 6",39.1 (8.98)
same,"BACS Verbal Fluency Cognition Domain, Week 6, Median","125 mg, Week 6",40.0
same,"BACS Attention Cognition Domain, Adjusted Change from Baseline to Week 6, LS Mean (SE)","125 mg, Week 6, MMRM",2.2 (0.88)
same,"BACS Attention Cognition Domain, Difference from Placebo for Week 6, LS Mean (SE)","125 mg, Week 6, MMRM",1.2 (1.12)
same,"BACS Executive Functions Cognition Domain, Adjusted Change from Baseline to Week 6, LS Mean (SE)","125 mg, Week 6, MMRM",0.8 (1.19)
same,"BACS Executive Functions Cognition Domain, Difference from Placebo for Week 6, LS Mean (SE)","125 mg, Week 6, MMRM",2.0 (1.53)
same,"BACS Verbal Fluency Cognition Domain, Adjusted Change from Baseline to Week 6, LS Mean (SE)","125 mg, Week 6, MMRM",0.7 (0.68)
same,"BACS Verbal Fluency Cognition Domain, Difference from Placebo for Week 6, LS Mean (SE)","125 mg, Week 6, MMRM",0.6 (0.87)
same,"BACS Attention Cognition Domain, Change from Baseline to Week 12, Mean (SD)","125 mg, Week 12",1.2 (6.41)
same,"BACS Attention Cognition Domain, Change from Baseline to Week 12, Median","125 mg, Week 12",2.0
same,"BACS Attention Cognition Domain, Week 12, Mean (SD)","125 mg, Week 12",36.2 (12.21)
same,"BACS Attention Cognition Domain, Week 12, Median","125 mg, Week 12",36.0
same,"BACS Executive Functions Cognition Domain, Change from Baseline to Week 12, Mean (SD)","125 mg, Week 12",2.0 (8.79)
same,"BACS Executive Functions Cognition Domain, Change from Baseline to Week 12, Median","125 mg, Week 12",3.0
same,"BACS Executive Functions Cognition Domain, Week 12, Mean (SD)","125 mg, Week 12",47.6 (13.17)
same,"BACS Executive Functions Cognition Domain, Week 12, Median","125 mg, Week 12",51.0
same,"BACS Verbal Fluency Cognition Domain, Change from Baseline to Week 12, Mean (SD)","125 mg, Week 12",2.1 (5.59)
same,"BACS Verbal Fluency Cognition Domain, Change from Baseline to Week 12, Median","125 mg, Week 12",2.0
same,"BACS Verbal Fluency Cognition Domain, Week 12, Mean (SD)","125 mg, Week 12",40.6 (9.54)
same,"BACS Verbal Fluency Cognition Domain, Week 12, Median","125 mg, Week 12",39.0
same,"BACS Attention Cognition Domain, Adjusted Change from Baseline to Week 12, LS Mean (SE)","125 mg, Week 12, MMRM",1.4 (1.01)
same,"BACS Attention Cognition Domain, Difference from Placebo for Week 12, LS Mean (SE)","125 mg, Week 12, MMRM",−0.5 (1.29)
same,"BACS Executive Functions Cognition Domain, Adjusted Change from Baseline to Week 12, LS Mean (SE)","125 mg, Week 12, MMRM",2.0 (1.09)
same,"BACS Executive Functions Cognition Domain, Difference from Placebo for Week 12, LS Mean (SE)","125 mg, Week 12, MMRM",1.4 (1.38)
same,"BACS Verbal Fluency Cognition Domain, Adjusted Change from Baseline to Week 12, LS Mean (SE)","125 mg, Week 12, MMRM",1.9 (0.84)
same,"BACS Verbal Fluency Cognition Domain, Difference from Placebo for Week 12, LS Mean (SE)","125 mg, Week 12, MMRM",0.9 (1.07)
same,"BACS Verbal Memory Cognition Domain, Difference from Placebo for Week 6, LS Mean (SE)","500 mg once daily, MMRM, one-sided unadjusted p 0.070, preliminary analysis",2.0 (1.33)
same,"BACS Composite Score, Difference from Placebo for Week 6, LS Mean (SE)","500 mg once daily, MMRM, one-sided unadjusted p 0.194, preliminary analysis",0.9 (1.04)
same,"BACS Composite Score, Difference from Placebo for Week 12, LS Mean (SE)","500 mg once daily, MMRM, one-sided unadjusted p 0.260, preliminary analysis",0.8 (1.20)
same,"BACS Verbal Memory Cognition Domain, Difference from Placebo for Week 12, LS Mean (SE)","500 mg once daily, MMRM, one-sided unadjusted p 0.329, preliminary analysis",0.7 (1.49)
same,"BACS Motor Speed Cognition Domain, Difference from Placebo for Week 12, LS Mean (SE)","500 mg once daily, MMRM, one-sided unadjusted p 0.405, preliminary analysis",0.3 (1.22)
same,"BACS Working Memory Cognition Domain, Difference from Placebo for Week 12, LS Mean (SE)","500 mg once daily, MMRM, one-sided unadjusted p 0.637, preliminary analysis",−0.5 (1.40)
same,"BACS Working Memory Cognition Domain, Difference from Placebo for Week 6, LS Mean (SE)","500 mg once daily, MMRM, one-sided unadjusted p 0.788, preliminary analysis",−0.9 (1.19)
same,"BACS Motor Speed Cognition Domain, Difference from Placebo for Week 6, LS Mean (SE)","500 mg once daily, MMRM, one-sided unadjusted p 0.812, preliminary analysis",−1.1 (1.30)
same,"BACS Composite Score, Adjusted Change from Baseline to Week 6, LS Mean (SE)",[2],0.5 (0.87)
same,"BACS Composite Score, Adjusted Change from Baseline to Week 12, LS Mean (SE)",[2],1.5 (0.99)
same,"BACS Motor Speed Cognition Domain, Adjusted Change from Baseline to Week 6, LS Mean (SE)",[2],−1.3 (1.07)
same,"BACS Motor Speed Cognition Domain, Adjusted Change from Baseline to Week 12, LS Mean (SE)",[2],−0.2 (1.02)
same,"BACS Verbal Memory Cognition Domain, Adjusted Change from Baseline to Week 6, LS Mean (SE)",[2],0.7 (1.11)
same,"BACS Verbal Memory Cognition Domain, Adjusted Change from Baseline to Week 12, LS Mean (SE)",[2],0.0 (1.23)
same,"BACS Working Memory Cognition Domain, Adjusted Change from Baseline to Week 6, LS Mean (SE)",[2],−0.9 (0.98)
same,"BACS Working Memory Cognition Domain, Adjusted Change from Baseline to Week 12, LS Mean (SE)",[2],0.2 (1.15)
same,"BACS Composite Score, Change from Baseline to Week 6, Mean (SD)",[3],1.5 (7.57)
same,"BACS Composite Score, Change from Baseline to Week 6, Median",[3],1.0
same,"BACS Composite Score, Change from Baseline to Week 12, Mean (SD)",[3],3.0 (7.98)
same,"BACS Composite Score, Change from Baseline to Week 12, Median",[3],3.0
